The text below walks through data of article PMC6364417, “Kinase inhibitor library screening identifies synergistic drug combinations effective in sensitive and resistant melanoma cells” (Journal of Experimental & Clinical Cancer Research : CR, 2019).

Structures are written as SMILES.

Holding throughout (assay): Kinase inhibitor library screening, PrestoBlue cell viability, 1 or 10 μM, 72 h
The test system of one series is 501Mel cells (parental). The note with it: 72 h; for viability at 1 µM / viability at 10 µM: Homo sapiens; for viability at 1 µM: read-out: cell viability, 501Mel Parental, 1μΜ; for viability at 10 µM: read-out: cell viability, 501Mel Parental, 10μΜ. The method, then: (§1) After 72 h of treatment, cell viability was assessed using the PrestoBlue Cell Viability Reagent (ThermoFisher Scientific). Measurements were performed with the CLARIOstar Monochromator microplate reader (BMG Labtech).
(§2) Kinase inhibitor library screening. […] Each cell line was treated in its sensitive form (parental), and also as 2 resistant derivatives, which were made resistant to either Vemurafenib (XP) or Dabrafenib (GP). Drugs were added at 2 different concentrations, 1 and 10 μM, for 72 h and cell viability was assessed using the PrestoBlue Cell Viability assay. Results are depicted as % viability compared to untreated cells. Each cell line was analyzed at least in duplicate. […] (XLSX 95 kb)

Series [1] concerns 501Mel-GP cells (Dabrafenib-resistant). Particulars: 72 h; for viability at 1 µM / viability at 10 µM: Homo sapiens; for viability at 1 µM: read-out: cell viability, 501Mel GP, 1μΜ; for viability at 10 µM: read-out: cell viability, 501Mel GP, 10μΜ. Here is the method:
as §1, §2

The test system of series [2] is 501Mel-XP cells (Vemurafenib-resistant). Particulars: 72 h; for viability at 1 µM / viability at 10 µM: Homo sapiens; for viability at 1 µM: read-out: cell viability, 501Mel XP, 1μΜ; for viability at 10 µM: read-out: cell viability, 501Mel XP, 10μΜ; for cell viability, 501Mel XP, 1μΜ / cell viability, 501Mel XP, 10μΜ: in %. Here is the method: as §1, §2
In the next series the test system is A375 cells (parental). Particulars: for viability at 1 µM / viability at 10 µM: Homo sapiens, A-375, 72 h; for viability at 1 µM: read-out: cell viability, A375 Parental, 1μΜ; for viability at 10 µM: read-out: cell viability, A375 Parental, 10μΜ; for cell viability, A375 Parental, 10μΜ: 72 h, in %. The method, then: as §1, §2
In series [3] the test system is A375-GP cells (Dabrafenib-resistant). Particulars: for viability at 1 µM / viability at 10 µM: Homo sapiens, A-375, 72 h; for viability at 1 µM: read-out: cell viability, A375 GP, 1μΜ; for viability at 10 µM: read-out: cell viability, A375 GP, 10μΜ. Here is the method: as §1, §2
Series [4] relates to A375-XP cells (Vemurafenib-resistant). The note with it: for viability at 1 µM / viability at 10 µM: Homo sapiens, A-375, 72 h; for viability at 1 µM: read-out: cell viability, A375 XP, 1μΜ; for viability at 10 µM: read-out: cell viability, A375 XP, 10μΜ; for cell viability, A375 XP, 1μΜ / cell viability, A375 XP, 10μΜ: 72 h, in %. Here is the method:
as §1, §2

In the next series the test system is IGR37 cells (parental). The note with it: for viability at 1 µM / viability at 10 µM: Homo sapiens, IGR-37, 72 h; for viability at 1 µM: read-out: cell viability, IGR37 Parental, 1μΜ; for viability at 10 µM: read-out: cell viability, IGR37 Parental, 10μΜ. Here is the method:
as §1, §2

Series [5] deals with IGR37-GP cells (Dabrafenib-resistant). Particulars: for viability at 1 µM / viability at 10 µM: Homo sapiens, IGR-37, 72 h; for viability at 1 µM: read-out: cell viability, IGR37 GP, 1μΜ; for viability at 10 µM: read-out: cell viability, IGR37 GP, 10μΜ. Here is the method:
as §1, §2

Series [6] has as its system IGR37-XP cells (Vemurafenib-resistant). Particulars: for viability at 1 µM / viability at 10 µM: Homo sapiens, IGR-37, 72 h; for viability at 1 µM: read-out: cell viability, IGR37 XP, 1μΜ; for viability at 10 µM: read-out: cell viability, IGR37 XP, 10μΜ. Here is the method: as §1, §2

For the molecule `Cc1cc(Nc2cc(CN3CCOCC3)c3nc(C)c(Cc4ccc(Cl)cc4F)n3n2)n[nH]1` [LY2784544], the viability at 1 µM was 89.9% in the series with 501Mel cells (parental); 99.1% in series [1]; 87.1% in series [2]; 94.9% in the series on A375 cells (parental); 101% in [3]; 102% in series [4]. Besides, the viability at 1 µM in the series on IGR37 cells (parental) stood at 99.2%; in series [5] it was 90.3%; in [6], 91.6%. Also, the viability at 10 µM in the series on 501Mel cells (parental) stood at 67.3%; in series [1], 49%; in [2] it was 27.9%; in the series on A375 cells (parental), 28.1%; in [3], 26.9%; in series [4], 35.9%. Moreover, the viability at 10 µM stood at 87% in the series with IGR37 cells (parental), 53.2% in [5] and 17.9% in series [6].
On to `CS(=O)(=O)CCNCc1ccc(-c2ccc3ncnc(Nc4ccc(OCc5cccc(F)c5)c(Cl)c4)c3c2)o1.Cc1ccc(S(=O)(=O)O)cc1.Cc1ccc(S(=O)(=O)O)cc1` [Lapatinib Ditosylate (Tykerb)], for which the “cell viability, 501Mel Parental, 10μΜ” value in the series with 501Mel cells (parental) (501Mel Parental, in %) is reported as 33.4. Further, in series [1] (501Mel GP, in %), the “cell viability, 501Mel GP, 10μΜ” value was 78.0. Further, in [2], the “cell viability, 501Mel XP, 1μΜ” value is reported as 94.1 and the “cell viability, 501Mel XP, 10μΜ” value is -0.129. The “cell viability, A375 Parental, 10μΜ” value in the series on A375 cells (parental) is on record as 78.4. Further, the “cell viability, A375 GP, 10μΜ” value in series [3] (A375 GP, 72 h, in %) was 81.7. In addition, in series [4], the “cell viability, A375 XP, 1μΜ” value came to 114.8 and the “cell viability, A375 XP, 10μΜ” value worked out at 72.3. The “cell viability, IGR37 Parental, 10μΜ” value in the series with IGR37 cells (parental) (IGR37 Parental, 72 h, in %) came to 92.3. In addition, the cell viability, IGR37 GP, 10μΜ in series [5] (IGR37 GP, 72 h) is 14%. Further, in [6] (IGR37 XP, 72 h), the cell viability, IGR37 XP, 10μΜ came to 1.6%.
Consider `CCc1cc(Nc2nccc(-c3c(-c4ccc(OC)c(C(=O)Nc5c(F)cccc5F)c4)nc4ccccn34)n2)c(OC)cc1N1CCC(N2CCN(S(C)(=O)=O)CC2)CC1` [GSK1904529A], for which, in the series with 501Mel cells (parental) (501Mel Parental, 1μΜ, in %), the “cell viability, 501Mel Parental, 1μΜ” value is given as 99.4. The “cell viability, 501Mel Parental, 10μΜ” value with 501Mel cells (parental) (501Mel Parental, in %) was determined as 98.3. Moreover, the “cell viability, 501Mel GP, 1μΜ” value in series [1] (501Mel GP, 1μΜ, in %) stood at 109.2. The “cell viability, 501Mel GP, 10μΜ” value in [1] (501Mel GP, in %) stood at 89.5. Further, in [2], the “cell viability, 501Mel XP, 1μΜ” value was determined as 93.0 and the “cell viability, 501Mel XP, 10μΜ” value was found to be 82.3. In the series on A375 cells (parental), the “cell viability, A375 Parental, 10μΜ” value was 94.0. For the same molecule, in series [3] (A375 GP, 1μΜ, 72 h, in %), the “cell viability, A375 GP, 1μΜ” value is reported as 98.4. Also, the “cell viability, A375 GP, 10μΜ” value in series [3] (A375 GP, 72 h, in %) was found to be 92.6. Further, in [4], the “cell viability, A375 XP, 1μΜ” value is given as 104.6 and the “cell viability, A375 XP, 10μΜ” value was determined as 97.7. In addition, in the series on IGR37 cells (parental) (IGR37 Parental, 1μΜ, 72 h, in %), the “cell viability, IGR37 Parental, 1μΜ” value is 114.5. Further, the “cell viability, IGR37 Parental, 10μΜ” value in the series on IGR37 cells (parental) (IGR37 Parental, 72 h, in %) amounted to 96.7. Also, the cell viability, IGR37 GP, 10μΜ in [5] (IGR37 GP, 72 h) is 62.6%. Besides, the “cell viability, IGR37 GP, 1μΜ” value in [5] (IGR37 GP, 1μΜ, 72 h, in %) was 98.3. Besides, the cell viability, IGR37 XP, 10μΜ in series [6] (IGR37 XP, 72 h) was found to be 20.4%. In addition, the “cell viability, IGR37 XP, 1μΜ” value in [6] (IGR37 XP, 1μΜ, 72 h, in %) came out at 98.9.
Take `Cn1cc(C2=C(c3ccc(Cl)cc3Cl)C(=O)NC2=O)c2ccccc21` [SB 216763]: the viability at 1 µM with 501Mel cells (parental) is 101%; in [1] it was 106%; in [2], 96.9%; with A375 cells (parental) it was 111%; in series [3] it was 104%; in [4] it was 109%. For the same molecule, the results for the viability at 1 µM (in the series with IGR37 cells (parental); in series [5]; in series [6]) were 116%, 105% and 111%, respectively. The viability at 10 µM turned out to be 82.6% in the series with 501Mel cells (parental); 74.1% in series [1]; 73.3% in series [2]; 68.1% in the series on A375 cells (parental); 67% in [3]; 79.9% in series [4]. Also, the viability at 10 µM in the series on IGR37 cells (parental) is 99%; in [5], 88.4%; in [6] it was 65.4%.

For orientation: viability means a read-out of living cells in per cent, often relative to untreated cells.
